Source: publication PMC4460047 (PLoS ONE, 2015)
Values joined by “and” are separate entries in the source; they are usually repeats but may differ in a detail not shown here. Equal entries are not always repeated. Marks after values point to notes of the source that are not given here.

Legend:
[1] = Stability and PEA release in 80% v/v rat plasma; type: in vitro ADME; conditions: for half-life at 50 nM: rat, pH 7.4, 80% v/v rat plasma, read-out: Rat Plasma Compd t 1/2; for half-life at 50 nM / Rat Plasma Compd t 1/2: 50 nm compound; for remaining at 6 h, 50 nM: pH 7.4, read-out: Percent remaining after 6 h incubation in rat plasma
Experimental: (§1) The chemical and metabolic stability of PEA and all prodrugs were studied by incubating each compound (5 μL of a […] solution in DMSO, or DMSO as control) with 495 μL of 10 mM phosphate buffered saline pH 7.4 for chemical stability, 80% v/v rat plasma or 20% w/v rat liver homogenate prepared accordingly to previously described procedures for metabolic stability, reaching a final concentration of 50 nm for the test compound.
(§2) Rat plasma and liver samples were pre-incubated at 37°C for 10 min before adding the compounds. After incubation for different time periods (0, 15, 30, 60, 120, 240 and 360 min), samples were deproteinized by adding 100 μL of acetonitrile with 75 nmol L^-1 IS (PEA-d4). The samples were centrifuged (14 000 g, 10 min, 4°C), and the supernatants were analyzed by HPLC–ESI–MS/MS. For each tested compound, a multiple reaction monitoring (MRM) ESI–MS/MS method was set up in order to monitor the relative concentration of compound and released PEA at the different incubation times, compared to the time t = 0, in rat plasma and liver homogenate.
Cmax and tmax in rat plasma were read from the raw data as the coordinates of the highest concentration observed. A Thermo TSQ Quantum triple-quadrupole mass spectrometer (Thermo Italia, Milan, Italy) with heated electrospray ionization (H-ESI) ion source was used for mass detection and analysis. Mass spectrometric analyses were done in positive ion mode. H-ESI interface parameters were set as follows: probe middle (D) position; capillary temperature 270°C; spray voltage 3.0 kV. Nitrogen was used as nebulizing gas at the following pressure: sheath gas 35 psi; auxiliary gas 15 arbitrary units (a.u.). Argon was used as the collision gas at a pressure of approximately 1.5 mtorr (1 torr = 133.3 Pa). For quantitative analysis, the following parent ion → product ions transitions were selected: PEA (1): m/z 300.2 → m/z 62.3 (tube lens 60 V; collision energy 19 eV); PEA-d4 (Internal Standard): m/z 304.2 → m/z 66.3 + m/z 287.2 (tube lens 72 V; collision energy 15, 12 eV). MRM transitions, tube lens voltages and collision energies for compounds 3–5, 7–9, 19–24, 26–31, and 33 are reported in the S1 File. […] The coefficients of correlation (r^2) were >0.99 for all curves. The LOQ was 1 nmol mL^−1 for all analytes. Extraction efficiency was determined by comparing the peak area ratio of spiked samples at three concentration levels (low, intermediate, and high) to those of extracted charcoal treated blank plasma spiked with the corresponding concentrations. The mean extraction recovery ranged from 109% to 91% for all compounds. The specificity of the assay was evaluated by comparison of HPLC–ESI–MS/MS chromatograms of the analytes at the LOQ to those of charcoal treated blank plasma samples in triplicate.

[2] = Stability in 20% w/v rat liver homogenate; type: in vitro ADME; conditions: 37°C; for half-life at 50 nM / remaining at 2 h, 50 nM: rat, 20% w/v rat liver homogenate; for half-life at 50 nM: read-out: Rat Liver Compd t 1/2; for remaining at 2 h, 50 nM: read-out: Percent remaining after 2 h incubation in rat liver homogenate
Experimental: as §1, §2

[3] = Chemical stability in phosphate buffered saline pH 7.4; type: physicochemical; conditions: for %Compd at 6 h, pH 7.4: percent remaining after 6 h of incubation at 37°C in PBS buffer pH 7.4; for L- and D-aspartate derivatives produced by deamidation at the side chain: buffer pH 7.4, data not shown
Experimental: as §1, §2

Question: With CCCCCCCCCCCCCCCC(=O)NCCOC(=O)OCOC(C)=O [compound 3, Acetoxymethyl 2-(palmitoylamino)ethyl carbonate] as the compound, how does the half-life at 50 nM ([1]; 80% v/v rat plasma, 37°C) read?
Answer: Its half-life at 50 nM is < 1 min.

Question: What about the half-life at 50 nM ([2]; rat liver homogenate) of the same compound?
Answer: Its half-life at 50 nM is < 1 min.

Question: What about the “%Compd at 6 h, pH 7.4” value [3] of the same compound?
Answer: Its value is 86 ± 1%.

Question: For CCCCCCCCCCCCCCCC(=O)NCCOC(=O)OCOC(=O)C(C)C [compound 4, Isobutyroyloxymethyl 2-(palmitoylamino)ethyl carbonate], which half-life at 50 nM ([1]; 80% v/v rat plasma, 37°C) is on record?
Answer: Its half-life at 50 nM is 1.1 ± 0.2 min.

Question: And the half-life at 50 nM ([2]; rat liver homogenate)?
Answer: Its half-life at 50 nM is < 1 min.

Question: And the “%Compd at 6 h, pH 7.4” value [3]?
Answer: The value was 84 ± 1%.

Question: With CCCCCCCCCCCCCCCC(=O)NCCOC(=O)OCOC(=O)C1CCCCC1 [compound 5, (Cyclohexanelcarboxyloyloxy)methyl 2-(palmitoylamino)ethyl carbonate] as the compound, how does the “Rat Plasma Compd t 1/2” value ([1]; 80% v/v rat plasma, 37°C) read?
Answer: Its value is 5.1 ± 0.5 min.

Question: And the half-life at 50 nM ([1]; 80% v/v rat plasma, 37°C)?
Answer: Its half-life at 50 nM is 5 min.

Question: And the half-life at 50 nM ([2]; rat liver homogenate)?
Answer: The half-life at 50 nM was 1.2 ± 0.2 min.

Question: What about the “%Compd at 6 h, pH 7.4” value [3] of the same compound?
Answer: Its value is 84 ± 1%.

Question: Which results are given for CCCCCCCCCCCCCCCC(=O)NCCOC(=O)NCC(=O)O [compound 7, N-(2-Palmitoylamino-ethyloxy)carbonyl-glycine]?
Answer: remaining at 6 h, 50 nM ([1]; 80% v/v rat plasma, 37°C, 6 h): 96 ± 4%; half-life at 50 nM ([2]; rat liver homogenate): 23 ± 1 min; %Compd at 6 h, pH 7.4 [3]: 101 ± 1%

Question: Which remaining at 6 h, 50 nM ([1]; 80% v/v rat plasma, 37°C, 6 h) does the source give for CCCCCCCCCCCCCCCC(=O)NCCOC(=O)N[C@@H](C)C(=O)O [compound 8, N-(2-Palmitoylamino-ethyloxy)carbonyl-L-alanine] here?
Answer: Its remaining at 6 h, 50 nM is 96 ± 2%.

Question: What about the half-life at 50 nM ([2]; rat liver homogenate) of the same compound?
Answer: Its half-life at 50 nM is 29 ± 3 min.

Question: What about the “%Compd at 6 h, pH 7.4” value [3] of the same compound?
Answer: The value was 103 ± 3%.

Question: With CCCCCCCCCCCCCCCC(=O)NCCOC(=O)N[C@H](C(=O)O)C(C)C [compound 9, N-(2-Palmitoylamino-ethyloxy)carbonyl-L-valine] as the compound, how does the remaining at 6 h, 50 nM ([1]; 80% v/v rat plasma, 37°C, 6 h) read?
Answer: The remaining at 6 h, 50 nM was 98 ± 1%.

Question: And the remaining at 2 h, 50 nM ([2]; 2 h)?
Answer: The remaining at 2 h, 50 nM was 92 ± 5%.

Question: What about the “%Compd at 6 h, pH 7.4” value [3] of the same compound?
Answer: Its value is 99 ± 1%.

Question: For CCCCCCCCCCCCCCCC(=O)NCCOC(=O)[C@H](C)N.Cl [compound 19, 2-(palmitoylamino)ethyl L-alaninate hydrochloride], which half-life at 50 nM ([1]; 80% v/v rat plasma, 37°C) is on record?
Answer: The half-life at 50 nM was ~1 min.

Question: What about the “Rat Liver Compd t 1/2” value ([2]; rat liver homogenate) of the same compound?
Answer: Its value is 1.4 ± 0.5 min.

Question: And the half-life at 50 nM ([2]; rat liver homogenate)?
Answer: The half-life at 50 nM was ~1 min.

Question: And the “%Compd at 6 h, pH 7.4” value [3]?
Answer: Its value is 64 ± 5%.

Question: For CCCCCCCCCCCCCCCC(=O)NCCOC(=O)[C@@H](N)[C@@H](C)CC.Cl [compound 21, 2-(Palmitoylamino)ethyl L-isoleucinate hydrochloride], which “Increase in plasma half-life relative to L-Ala-PEA” value ([1]; rat plasma) is on record?
Answer: The value was 200 fold.

Question: What about the half-life at 50 nM ([1]; 80% v/v rat plasma, 37°C) of the same compound?
Answer: The half-life at 50 nM was 205 ± 16 min.

Question: What about the remaining at 2 h, 50 nM ([2]; 2 h) of the same compound?
Answer: The remaining at 2 h, 50 nM was 65 ± 5%.

Question: And the “%Compd at 6 h, pH 7.4” value [3]?
Answer: The value was 103 ± 6%.

Question: Which results are given for CCCCCCCCCCCCCCCC(=O)NCCOC(=O)[C@@H](N)Cc1c[nH]c2ccccc12.Cl [compound 22, 2-(Palmitoylamino)ethyl L-tryptophanate hydrochloride]?
Answer: Rat Plasma Compd t 1/2 ([1]; 80% v/v rat plasma, 37°C): 4.5 ± 0.5 min; half-life at 50 nM ([1]; 80% v/v rat plasma, 37°C): ~5 min; half-life at 50 nM ([2]; rat liver homogenate): ~36 min; %Compd at 6 h, pH 7.4 [3]: 96 ± 1%

Question: What does the source list for CCCCCCCCCCCCCCCC(=O)NCCOC(=O)[C@@H](N)CC(N)=O.Cl [compound 23, 2-(Palmitoylamino)ethyl L-asparaginate hydrochloride]?
Answer: half-life at 50 nM ([1]; 80% v/v rat plasma, 37°C): ~9 min; half-life at 50 nM ([2]; rat liver homogenate): 24 ± 1 min; L- and D-aspartate derivatives produced by deamidation at the side chain [3]: about 1%; %Compd at 6 h, pH 7.4 [3]: 3% and 3.3 ± 0.3%; half-life at 50 nM ([3]; phosphate buffered saline, pH 7.4, read-out: t 1/2 in buffered solution at pH 7.4): ~3.3 min

Question: What does the source list for CCCCCCCCCCCCCCCC(=O)NCCOC(=O)[C@@H](N)CCC(N)=O.Cl [compound 24, 2-(Palmitoylamino)ethyl L-glutaminate hydrochloride]?
Answer: half-life at 50 nM ([1]; 80% v/v rat plasma, 37°C): 18 ± 1 min; half-life at 50 nM ([2]; rat liver homogenate): ~80 min; %Compd at 6 h, pH 7.4 [3]: 61 ± 3%

Question: What does the source list for CCCCCCCCCCCCCCCC(=O)NCCOC(=O)[C@@H](N)CC(=O)O.Cl [compound 26, 1-(2-(Palmitoylamino)ethyl) L-aspartate hydrochloride]?
Answer: half-life at 50 nM ([1]; 80% v/v rat plasma, 37°C): 172 ± 2 min; remaining at 2 h, 50 nM ([2]; 2 h): 66 ± 5%; %Compd at 6 h, pH 7.4 [3]: 85 ± 4%

Question: Which half-life at 50 nM ([1]; 80% v/v rat plasma, 37°C) does the source give for CCCCCCCCCCCCCCCC(=O)NCCOC(=O)[C@H](N)CC(N)=O.Cl [compound 27, 2-(Palmitoylamino)ethyl D-asparaginate hydrochloride] here?
Answer: Its half-life at 50 nM is 14 ± 1 min.

Question: And the half-life at 50 nM ([2]; rat liver homogenate)?
Answer: The half-life at 50 nM was 55 ± 4 min.

Question: And the “L- and D-aspartate derivatives produced by deamidation at the side chain” value [3]?
Answer: Its value is “about 1%”.

Question: What about the “%Compd at 6 h, pH 7.4” value [3] of the same compound?
Answer: The value was 3.5 ± 0.3%.

Question: Which half-life at 50 nM ([1]; 80% v/v rat plasma, 37°C) does the source give for CCCCCCCCCCCCCCCC(=O)NCCOC(=O)C[C@H](N)C(=O)O.Cl [compound 29, 4-(2-(Palmitoylamino)ethyl) L-aspartate hydrochloride] here?
Answer: Its half-life at 50 nM is 262 ± 35 min.

Question: What about the half-life at 50 nM ([2]; rat liver homogenate) of the same compound?
Answer: Its half-life at 50 nM is 21 ± 1 min.

Question: And the “%Compd at 6 h, pH 7.4” value [3]?
Answer: The value was 83 ± 3%.

Question: Which remaining at 6 h, 50 nM ([1]; 80% v/v rat plasma, 37°C, 6 h) does the source give for CCCCCCCCCCCCCCCC(=O)N[C@H](C)CO [compound 31, (R)-α-methyl-PEA] here?
Answer: Its remaining at 6 h, 50 nM is 82 ± 4%.

Question: And the remaining at 2 h, 50 nM ([2]; 2 h)?
Answer: Its remaining at 2 h, 50 nM is 87 ± 1%.

Question: What about the “%Compd at 6 h, pH 7.4” value [3] of the same compound?
Answer: The value was 95 ± 2%.

Question: For CCCCCCCCCCCCCCCC(=O)N[C@H](C)COC(=O)[C@@H](N)C(C)C.Cl [compound 33, (2R)-2-(palmitoylamino)propyl L-valinate hydrochloride], which “Rat plasma half-life relative to L-Val-PEA (20)” value ([1]; rat plasma) is on record?
Answer: Its value is 4 fold.

Question: And the half-life at 50 nM ([1]; 80% v/v rat plasma, 37°C)?
Answer: The half-life at 50 nM was 190 ± 3 min.

Question: What about the half-life at 50 nM ([2]; rat liver homogenate) of the same compound?
Answer: Its half-life at 50 nM is 38 min.

Question: What about the “%Compd at 6 h, pH 7.4” value [3] of the same compound?
Answer: Its value is 93 ± 4%.

Question: Which “Percent remaining after 6 h incubation in rat plasma” value ([1]; 80% v/v rat plasma, 37°C, 6 h) does the source give for (S)-α-methyl-PEA [compound 30] here?
Answer: The value was 80 ± 4% ^e.

Question: And the “Percent remaining after 2 h incubation in rat liver homogenate” value ([2]; 2 h)?
Answer: Its value is 79 ± 6% ^f.

Question: And the “%Compd at 6 h, pH 7.4” value [3]?
Answer: Its value is 96 ± 3%.
